Experimental data published in patent publication US8748624B2, “Picolinamido-propanoic acid derivatives useful as glucagon receptor antagonists” (Janssen Pharmaceutica NV, priority 2011, dated 2014).

Key:
[1] = molecular target: human glucagon receptor (GCGR) (Homo sapiens (Human), UniProt P47871); assay: Inhibition of 125I-glucagon binding to membranes from HEK293 cells expressing the human glucagon receptor; settings: membranes of hGluc-1 HEK cells, 125I-glucagon 0.3 nM, 2 hours room temperature; IC50 converted to Ki; average if tested more than once
Method in brief: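 Filtration binding assay on membranes from HEK293 cells stably expressing full-length human GCGR, 6 μg protein/well, with 0.3 nM ¹²⁵I-glucagon plus compound, 2 h at room temperature. Buffer: 50 mM HEPES pH 7.4, 5 mM MgCl2, 1 mM CaCl2, 0.2% BSA. IC50 by non-linear regression, converted to Ki.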

human GCGR = human GCGR (Homo sapiens (Human), UniProt P47871); assay: Cellular functional assay, cAMP readout (glucagon-stimulated cAMP in HEK293 cells expressing human GCGR); assay type: cell-based; settings: hGluc-1 HEK cells, LANCE TR-FRET, IC50 converted to Ki, average if tested more than once
Method in brief: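 HEK293 cells stably transfected with full-length human GCGR were exposed to compound for 30 min before a 5-min challenge with […] (final) glucagon. Readout was TR-FRET (LANCE) cAMP versus standard curve; IC50s fitted by non-linear regression and converted to Ki values.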

human glucagon receptor (GCGR), sequence (P47871 26-477): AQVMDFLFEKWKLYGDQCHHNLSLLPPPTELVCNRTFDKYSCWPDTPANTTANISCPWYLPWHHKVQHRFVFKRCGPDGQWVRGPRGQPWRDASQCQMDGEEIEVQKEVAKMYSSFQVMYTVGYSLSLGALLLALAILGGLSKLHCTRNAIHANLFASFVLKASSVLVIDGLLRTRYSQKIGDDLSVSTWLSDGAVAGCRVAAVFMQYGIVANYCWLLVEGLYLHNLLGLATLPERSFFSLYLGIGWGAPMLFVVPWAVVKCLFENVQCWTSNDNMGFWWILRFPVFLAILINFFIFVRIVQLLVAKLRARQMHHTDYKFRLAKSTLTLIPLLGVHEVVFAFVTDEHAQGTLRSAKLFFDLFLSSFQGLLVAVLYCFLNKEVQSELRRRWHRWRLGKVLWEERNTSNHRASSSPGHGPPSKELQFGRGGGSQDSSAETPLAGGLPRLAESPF
human GCGR, sequence (P47871 26-477): as above

Ki [1] [nM]	Ki (human GCGR) [nM]	Compound
67.1	181	O=C(O)CCNC(=O)c1ccc(-c2ccc(Cl)cc2CNc2ccc(-c3ccc(Cl)cc3Cl)cc2)cn1 [Compound 5, 3-(5-(4-chloro-2-(((2′,4′-dichloro-[1,1′-biphenyl]-4-yl)amino)methyl)phenyl)picolinamido)propanoic acid]
68.7	1850	N#Cc1cccc(CNc2ccc(-c3ccc(Cl)cc3)cc2)c1-c1ccc(C(=O)NCCC(=O)O)nc1 [Compound 66, 3-(5-(2-(((4′-chloro-[1,1′-biphenyl]-4-yl)amino)methyl)-6-cyanophenyl)picolinamido)propanoic acid]
36.3	68.1	Cc1ccc(C(=O)Nc2ccc(-c3ccc(Cl)cc3)cc2)c(-c2ccc(C(=O)NCCC(=O)O)nc2)c1 [Compound 145, 3-(5-(2-((4′-chloro-[1,1′-biphenyl]-4-yl)carbamoyl)-5-methylphenyl)picolinamido)propanoic acid]
39	142	O=C(O)CCNC(=O)c1ccc(-c2cc(Cl)ccc2CNc2ccc(-c3ccc(Cl)c(C(F)(F)F)c3)c(Cl)c2)cn1 [Compound 169, 3-(5-(5-chloro-2-(((2,4′-dichloro-3′-(trifluoromethyl)-[1,1′-biphenyl]-4-yl)amino)methyl)phenyl)picolinamido)propanoic acid]
27.7	73.3	O=C(O)CCNC(=O)c1ccc(-c2cc(Cl)ccc2CNc2ccc(-c3ccc(F)c(Cl)c3)cc2)cn1 [Compound 150, 3-(5-(5-chloro-2-(((3′-chloro-4′-fluoro-[1,1′-biphenyl]-4-yl)amino)methyl)phenyl)picolinamido)propanoic acid]
40	430	O=C(O)CCNC(=O)c1ccc(-c2cc(Cl)ccc2CNc2ccc(-c3ccc(F)cc3C(F)(F)F)cc2)cn1 [Compound 149, 3-(5-(5-chloro-2-(((4′-fluoro-2′-(trifluoromethyl)-[1,1′-biphenyl]-4-yl)amino)methyl)phenyl)picolinamido)propanoic acid]
21.3	41.8	O=C(O)CCNC(=O)c1ccc(-c2cc(F)c(F)cc2CNc2ccc(-c3ccc(F)c(C(F)(F)F)c3)c(Cl)c2)cn1 [Compound 102, 3-(5-(2-(((2-chloro-4′-fluoro-3′-(trifluoromethyl)-[1,1′-biphenyl]-4-yl)amino)methyl)-4,5-difluorophenyl)picolinamido)propanoic acid]
25.2	22.4	Cc1cc(Cl)ccc1-c1ccc(NCc2ccc(C(F)(F)F)cc2-c2ccc(C(=O)NCCC(=O)O)nc2)cc1 [Compound 22, 3-(5-(2-(((4′-chloro-2′-methyl-[1,1′-biphenyl]-4-yl)amino)methyl)-5-(trifluoromethyl)phenyl)picolinamido)propanoic acid]
33	255	Cc1ccc(-c2ccc(NCc3cc(F)c(F)cc3-c3ccc(C(=O)NCCC(=O)O)nc3)cc2Cl)c(F)c1 [Compound 105, 3-(5-(2-(((2-chloro-2′-fluoro-4′-methyl-[1,1′-biphenyl]-4-yl)amino)methyl)-4,5-difluorophenyl)picolinamido)propanoic acid]
27	67.5	O=C(O)CCNC(=O)c1ccc(-c2cc(-c3ccccc3)ccc2CNc2ccc(-c3ccc(Cl)cc3Cl)cc2)cn1 [Compound 173, 3-(5-(4-(((2′,4′-dichloro-[1,1′-biphenyl]-4-yl)amino)methyl)-[1,1′-biphenyl]-3-yl)picolinamido)propanoic acid]
28	31.6	O=C(O)CCNC(=O)c1ccc(-c2cc(C(F)(F)F)ccc2CNc2ccc(-c3ccc(Cl)cc3)c(Cl)c2)cn1 [Compound 28, 3-(5-(2-(((2,4′-dichloro-[1,1′-biphenyl]-4-yl)amino)methyl)-5-(trifluoromethyl)phenyl)picolinamido)propanoic acid]
24	31.6	Cc1cc(NCc2cc(Cl)c(C(F)(F)F)cc2-c2ccc(C(=O)NCCC(=O)O)nc2)ccc1-c1ccc(Cl)cc1 [Compound 79, 3-(5-(4-chloro-2-(((4′-chloro-2-methyl-[1,1′-biphenyl]-4-yl)amino)methyl)-5-(trifluoromethyl)phenyl)picolinamido)propanoic acid]
84.6	700	O=C(O)CCNC(=O)c1ccc(-c2cc(Cl)ccc2CNc2ccc(-c3cccc(OC(F)(F)F)c3)cc2)cn1 [Compound 129, 3-(5-(5-chloro-2-(((3′-(trifluoromethoxy)-[1,1′-biphenyl]-4-yl)amino)methyl)phenyl)picolinamido)propanoic acid]
31.3	225	O=C(O)CCNC(=O)c1ccc(-c2cc(Cl)ccc2CNc2ccc(-c3ccc(F)cc3C(F)(F)F)c(Cl)c2)cn1 [Compound 142, 3-(5-(5-chloro-2-(((2-chloro-4′-fluoro-2′-(trifluoromethyl)-[1,1′-biphenyl]-4-yl)amino)methyl)phenyl)picolinamido)propanoic acid]
26.3	64.2	O=C(O)CCNC(=O)c1ccc(-c2cc(C(F)(F)F)ccc2CNc2ccc(-c3ccc(Cl)cc3F)cc2)cn1 [Compound 40, 3-(5-(2-(((4′-chloro-2′-fluoro-[1,1′-biphenyl]-4-yl)amino)methyl)-5-(trifluoromethyl)phenyl)picolinamido)propanoic acid]
67.3	95.1	O=C(O)CCNC(=O)c1ccc(-c2cc(Cl)ccc2C(=O)Nc2ccc(-c3ccc(F)cc3F)cc2)cn1 [Compound 36, 3-(5-(5-chloro-2-((2′,4′-difluoro-[1,1′-biphenyl]-4-yl)carbamoyl)phenyl)picolinamido)propanoic acid]
71.3	1750	O=C(O)CCNC(=O)c1ccc(-c2cc(Cl)ccc2CNc2ccc(-c3ccccc3C(F)(F)F)cc2)cn1 [Compound 131, 3-(5-(5-chloro-2-(((2′-(trifluoromethyl)-[1,1′-biphenyl]-4-yl)amino)methyl)phenyl)picolinamido)propanoic acid]
40	160	O=C(O)CCNC(=O)c1ccc(-c2cc(C3=CCCCC3)ccc2CNc2ccc(-c3ccc(Cl)cc3Cl)cc2)cn1 [Compound 176, 3-(5-(4-(((2′,4′-dichloro-[1,1′-biphenyl]-4-yl)amino)methyl)-2′,3′,4′,5′-tetrahydro-[1,1′-biphenyl]-3-yl)picolinamido)propanoic acid]
33.8	34.6	O=C(O)CCNC(=O)c1ccc(-c2cc(C(F)(F)F)c(Cl)cc2CNc2ccc(-c3ccc(Cl)cc3Cl)cc2)cn1 [Compound 82, 3-(5-(4-chloro-2-(((2′,4′-dichloro-[1,1′-biphenyl]-4-yl)amino)methyl)-5-(trifluoromethyl)phenyl)picolinamido)propanoic acid]
33.4	295	O=C(O)CCNC(=O)c1ccc(-c2cc(Cl)ccc2CNc2ccc(-c3ccc(Cl)cc3)c(F)c2)cn1 [Compound 91, 3-(5-(5-chloro-2-(((4′-chloro-2-fluoro-[1,1′-biphenyl]-4-yl)amino)methyl)phenyl)picolinamido)propanoic acid]
16.8	34.1	O=C(O)CCNC(=O)c1ccc(-c2cc(Cl)ccc2CNc2ccc(-c3ccc(Cl)cc3Cl)c(Cl)c2)cn1 [Compound 51, 3-(5-(5-chloro-2-(((2,2′,4′-trichloro-[1,1′-biphenyl]-4-yl)amino)methyl)phenyl)picolinamido)propanoic acid]
40.4	73.5	N#Cc1cc(NCc2cc(F)c(F)cc2-c2ccc(C(=O)NCCC(=O)O)nc2)ccc1-c1ccc(Cl)cc1Cl [Compound 114, 3-(5-(2-(((2′,4′-dichloro-2-cyano-[1,1′-biphenyl]-4-yl)amino)methyl)-4,5-difluorophenyl)picolinamido)propanoic acid]
139	390	Cc1cccc(-c2ccc(C(=O)NCCC(=O)O)nc2)c1CNc1ccc(-c2ccc(Cl)cc2)cc1 [Compound 65, 3-(5-(2-(((4′-chloro-[1,1′-biphenyl]-4-yl)amino)methyl)-3-methylphenyl)picolinamido)propanoic acid]
52.2	> 10400	CS(=O)(=O)c1ccc(CNc2ccc(-c3ccc(Cl)cc3)cc2)c(-c2ccc(C(=O)NCCC(=O)O)nc2)c1 [Compound 70, 3-(5-(2-(((4′-chloro-[1,1′-biphenyl]-4-yl)amino)methyl)-5-(methylsulfonyl)phenyl)picolinamido)propanoic acid]
64.9	210	O=C(O)CCNC(=O)c1ccc(-c2ccc(Cl)cc2CNc2ccc(-c3ccc(Cl)cc3)cc2)cn1 [Compound 4, 3-(5-(4-chloro-2-(((4′-chloro-[1,1′-biphenyl]-4-yl)amino)methyl)phenyl)picolinamido)propanoic acid]
23.2	30	O=C(O)CCNC(=O)c1ccc(-c2cc(C(F)(F)F)ccc2CNc2ccc(-c3ccc(Cl)cc3F)c(Cl)c2)cn1 [Compound 37, 3-(5-(2-(((2,4′-dichloro-2′-fluoro-[1,1′-biphenyl]-4-yl)amino)methyl)-5-(trifluoromethyl)phenyl)picolinamido)propanoic acid]
235	2200	CC(Nc1ccc(-c2ccc(F)cc2)cc1)c1ccc(Cl)cc1-c1ccc(C(=O)NCCC(=O)O)nc1 (stereo not drawn) [Compound 155, 3-(5-(5-chloro-2-(1-((4′-fluoro-[1,1′-biphenyl]-4-yl)amino)ethyl)phenyl)picolinamido)propanoic acid]
